Experimental data as given in PMC8960621, “Solution speciation and human serum protein binding of indium(III) complexes of 8-hydroxyquinoline, deferiprone and maltol” (Journal of Biological Inorganic Chemistry, 2022).

Tests used:
apo-transferrin (apoTf) = biological target: T1, apo-transferrin (apoTf) (Homo sapiens, UniProt P02787); conditions: similar conditions; cited from earlier work
T1 construct: purchased Sigma-Aldrich T2036

[1] = design: method as in PMID 23089600; conditions: 10 μM, pH 7.4; cited from earlier work
apoTf = biological target: T2, apoTf (Homo sapiens, UniProt P02787); assay: apoTf fluorescence quenching; assay type: binding; conditions: λEM = 330 nm
T2 construct: purchased Sigma-Aldrich T2036
Method: Fluorescence quenching is a convenient technique to study the binding of metal ions at the iron-binding sites of apoTf since it results in reduced fluorescence intensity of Tf. Batch samples containing 1 μM apoTf and various amounts of In(III) compounds were prepared. […] The partial (and not complete) quenching of apoTf can be explained by the presence of numerous Tyr (26) and Trp (8) residues in the protein among which only a few are affected by the binding of In(III) at the iron-binding sites. Upon addition of InQ3, the quenching curve is more stretched and aims to lower intensities (Fig. 4b). Interaction of the non-dissociated complex InQ3 with apoTf cannot be excluded, the latter proposed interaction is realized via intermolecular binding mode and more likely takes place on site(s) other than the iron-binding pockets (vide infra).
Fluorescence studies were implemented by a Fluoromax (Horiba Jobin Yvon) fluorometer in 1 cm quartz cells. Samples contained 1 μM HSA or (apo)Tf and various protein-to-metal complex (or InCl3) ratios (up to complex/HSA = 1:30) were used. […] Intrinsic fluorescence of complex InQ3 was also followed at λEX = 367 nm, and λEM = 450 – 650 nm. In this setup, the complex concentration was ca. 10 or 20 μM, and protein (HSA, (apo)Tf) concentration was varied between 0 and 130 μM, and residual fluorescence of the proteins were subtracted if it was necessary. […]

T2 sequence (P02787 20-698): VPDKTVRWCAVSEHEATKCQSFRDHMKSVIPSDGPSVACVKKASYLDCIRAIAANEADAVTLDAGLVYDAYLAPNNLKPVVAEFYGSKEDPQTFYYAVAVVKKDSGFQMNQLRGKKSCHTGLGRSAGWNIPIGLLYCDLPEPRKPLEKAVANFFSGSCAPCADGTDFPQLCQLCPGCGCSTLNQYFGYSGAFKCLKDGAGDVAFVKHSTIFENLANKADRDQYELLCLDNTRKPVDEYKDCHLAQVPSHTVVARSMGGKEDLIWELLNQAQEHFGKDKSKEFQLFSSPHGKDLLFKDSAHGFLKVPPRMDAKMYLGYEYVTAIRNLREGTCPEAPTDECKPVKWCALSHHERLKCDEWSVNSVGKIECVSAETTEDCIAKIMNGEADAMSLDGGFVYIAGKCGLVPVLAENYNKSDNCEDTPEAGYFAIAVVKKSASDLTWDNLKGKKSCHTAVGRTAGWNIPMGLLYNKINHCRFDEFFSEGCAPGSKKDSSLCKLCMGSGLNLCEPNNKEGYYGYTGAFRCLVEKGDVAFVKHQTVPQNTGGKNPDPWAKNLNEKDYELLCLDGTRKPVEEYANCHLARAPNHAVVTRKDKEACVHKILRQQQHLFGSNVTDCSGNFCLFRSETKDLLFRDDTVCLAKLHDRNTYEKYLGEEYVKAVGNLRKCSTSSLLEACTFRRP
T1 sequence (P02787 20-698): as above

Row | SMILES | time of interaction with apoTf (apo-transferrin (apoTf)) | fraction of tris-ligand complex [1] | apoTf emission stabilized at % of the initial intensity (apoTf; 1 μM apoTf, λEX = 280 nm, pH 7.40) | breakpoint of the quenching curve, complex-to-Tf ratio (apoTf)
1 | [Ga+3].[O-]c1cccc2cccnc12.[O-]c1cccc2cccnc12.[O-]c1cccc2cccnc12 [GaQ3, Tris(8-Quinolinolato)gallium(III), reference compound] | ≤ 1 h | 86% |  | 
2 | Cc1c([O-])c(=O)ccn1C.Cc1c([O-])c(=O)ccn1C.Cc1c([O-])c(=O)ccn1C.[In+3] [InD3] |  |  | ca. 83% | ca. 2
